Assay results as given in the NIST ThermoML archive (doi:10.1016/j.jct.2007.03.010).

Assay: excess molar enthalpy (molar enthalpy of mixing); xn = mol fraction of the nth substance listed
Details: 101 kPa, Liquid, Calvet calorimetry

CC(O)CN (stereo not drawn) [1-amino-2-propanol] + O
Details	excess molar enthalpy [kJ/mol]
298.15 K, x1 = 0.03	-0.497
298.15 K, x1 = 0.0501	-0.777
298.15 K, x1 = 0.0697	-1.01
298.15 K, x1 = 0.1002	-1.36
298.15 K, x1 = 0.1505	-1.75
298.15 K, x1 = 0.2012	-2.04
298.15 K, x1 = 0.2994	-2.39
298.15 K, x1 = 0.3496	-2.48
298.15 K, x1 = 0.3993	-2.48
298.15 K, x1 = 0.4465	-2.42
298.15 K, x1 = 0.494	-2.32
298.15 K, x1 = 0.6033	-2.01
298.15 K, x1 = 0.7155	-1.53
298.15 K, x1 = 0.7954	-1.13
298.15 K, x1 = 0.8847	-0.725
313.15 K, x1 = 0.0304	-0.56
313.15 K, x1 = 0.0701	-1.06
313.15 K, x1 = 0.1001	-1.36
313.15 K, x1 = 0.15	-1.76
313.15 K, x1 = 0.1999	-2.05
313.15 K, x1 = 0.3021	-2.44
313.15 K, x1 = 0.352	-2.52
313.15 K, x1 = 0.4015	-2.5
313.15 K, x1 = 0.5022	-2.33
313.15 K, x1 = 0.591	-2.04
313.15 K, x1 = 0.692	-1.64
313.15 K, x1 = 0.7864	-1.18
313.15 K, x1 = 0.8808	-0.73
323.15 K, x1 = 0.0301	-0.478
323.15 K, x1 = 0.05	-0.714
323.15 K, x1 = 0.0705	-1.02
323.15 K, x1 = 0.0999	-1.29
323.15 K, x1 = 0.1507	-1.68
323.15 K, x1 = 0.1993	-1.98
323.15 K, x1 = 0.2999	-2.3
323.15 K, x1 = 0.3533	-2.42
323.15 K, x1 = 0.4045	-2.45
323.15 K, x1 = 0.507	-2.32
323.15 K, x1 = 0.5849	-2.08
323.15 K, x1 = 0.6741	-1.76
323.15 K, x1 = 0.8125	-1.09
323.15 K, x1 = 0.9073	-0.601

CN(C)CCO [2-(N,N-dimethylamino)ethanol] + O
Details	excess molar enthalpy [kJ/mol]
298.15 K, x1 = 0.0299	-0.701
298.15 K, x1 = 0.0705	-1.45
298.15 K, x1 = 0.1008	-1.85
298.15 K, x1 = 0.1501	-2.28
298.15 K, x1 = 0.2052	-2.59
298.15 K, x1 = 0.301	-2.85
298.15 K, x1 = 0.349	-2.9
298.15 K, x1 = 0.4106	-2.89
298.15 K, x1 = 0.4544	-2.82
298.15 K, x1 = 0.5365	-2.58
298.15 K, x1 = 0.6599	-2.01
298.15 K, x1 = 0.7996	-1.25
298.15 K, x1 = 0.9156	-0.557
313.15 K, x1 = 0.0307	-0.701
313.15 K, x1 = 0.0695	-1.31
313.15 K, x1 = 0.1196	-1.92
313.15 K, x1 = 0.2038	-2.44
313.15 K, x1 = 0.2979	-2.73
313.15 K, x1 = 0.349	-2.78
313.15 K, x1 = 0.4063	-2.77
313.15 K, x1 = 0.4925	-2.58
313.15 K, x1 = 0.5885	-2.2
313.15 K, x1 = 0.7046	-1.69
313.15 K, x1 = 0.7891	-1.24
313.15 K, x1 = 0.9076	-0.607
323.15 K, x1 = 0.0301	-0.661
323.15 K, x1 = 0.0705	-1.32
323.15 K, x1 = 0.1217	-1.82
323.15 K, x1 = 0.2027	-2.33
323.15 K, x1 = 0.3001	-2.63
323.15 K, x1 = 0.3486	-2.69
323.15 K, x1 = 0.4001	-2.68
323.15 K, x1 = 0.4995	-2.5
323.15 K, x1 = 0.6093	-2.05
323.15 K, x1 = 0.7618	-1.29
323.15 K, x1 = 0.9197	-0.464

CNCCO [2-(methylamino)ethanol] + O
Details	excess molar enthalpy [kJ/mol]
298.15 K, x1 = 0.0302	-0.53
298.15 K, x1 = 0.0514	-0.902
298.15 K, x1 = 0.0695	-1.16
298.15 K, x1 = 0.1002	-1.48
298.15 K, x1 = 0.1485	-1.92
298.15 K, x1 = 0.1992	-2.24
298.15 K, x1 = 0.3021	-2.67
298.15 K, x1 = 0.3471	-2.75
298.15 K, x1 = 0.3996	-2.73
298.15 K, x1 = 0.4471	-2.67
298.15 K, x1 = 0.5017	-2.51
298.15 K, x1 = 0.5992	-2.15
298.15 K, x1 = 0.696	-1.71
298.15 K, x1 = 0.7988	-1.22
298.15 K, x1 = 0.8939	-0.688
313.15 K, x1 = 0.031	-0.535
313.15 K, x1 = 0.05	-0.902
313.15 K, x1 = 0.0704	-1.18
313.15 K, x1 = 0.1011	-1.59
313.15 K, x1 = 0.1488	-1.99
313.15 K, x1 = 0.2003	-2.3
313.15 K, x1 = 0.2983	-2.64
313.15 K, x1 = 0.3491	-2.68
313.15 K, x1 = 0.3986	-2.67
313.15 K, x1 = 0.5035	-2.51
313.15 K, x1 = 0.5833	-2.29
313.15 K, x1 = 0.686	-1.92
313.15 K, x1 = 0.8053	-1.28
313.15 K, x1 = 0.8956	-0.679
323.15 K, x1 = 0.0299	-0.742
323.15 K, x1 = 0.0501	-1.11
323.15 K, x1 = 0.07	-1.36
323.15 K, x1 = 0.1008	-1.66
323.15 K, x1 = 0.1504	-1.98
323.15 K, x1 = 0.2004	-2.22
323.15 K, x1 = 0.2985	-2.57
323.15 K, x1 = 0.3492	-2.64
323.15 K, x1 = 0.4023	-2.65
323.15 K, x1 = 0.5108	-2.48
323.15 K, x1 = 0.6095	-2.14
323.15 K, x1 = 0.6956	-1.73
323.15 K, x1 = 0.8039	-1.17
323.15 K, x1 = 0.8815	-0.749

NCCCO [3-amino-1-propanol] + O
Details	excess molar enthalpy [kJ/mol]
298.15 K, x1 = 0.0299	-0.404
298.15 K, x1 = 0.0705	-0.927
298.15 K, x1 = 0.1203	-1.52
298.15 K, x1 = 0.2	-2.13
298.15 K, x1 = 0.2982	-2.5
298.15 K, x1 = 0.3452	-2.6
298.15 K, x1 = 0.4067	-2.61
298.15 K, x1 = 0.4989	-2.46
298.15 K, x1 = 0.593	-2.17
298.15 K, x1 = 0.7515	-1.53
298.15 K, x1 = 0.8969	-0.711
313.15 K, x1 = 0.0297	-0.483
313.15 K, x1 = 0.0702	-1.03
313.15 K, x1 = 0.12	-1.57
313.15 K, x1 = 0.2007	-2.11
313.15 K, x1 = 0.3015	-2.54
313.15 K, x1 = 0.3458	-2.63
313.15 K, x1 = 0.3982	-2.65
313.15 K, x1 = 0.5034	-2.5
313.15 K, x1 = 0.6045	-2.12
313.15 K, x1 = 0.7564	-1.38
313.15 K, x1 = 0.9333	-0.481
323.15 K, x1 = 0.0298	-0.643
323.15 K, x1 = 0.0718	-1.21
323.15 K, x1 = 0.1192	-1.66
323.15 K, x1 = 0.1996	-2.14
323.15 K, x1 = 0.3018	-2.54
323.15 K, x1 = 0.3493	-2.65
323.15 K, x1 = 0.3947	-2.67
323.15 K, x1 = 0.5038	-2.5
323.15 K, x1 = 0.605	-2.16
323.15 K, x1 = 0.7594	-1.42
323.15 K, x1 = 0.8801	-0.753

NCCNCCO [N-(2-aminoethyl)ethanolamine] + O
Details	excess molar enthalpy [kJ/mol]
298.15 K, x1 = 0.0298	-0.771
298.15 K, x1 = 0.0496	-1.27
298.15 K, x1 = 0.0699	-1.71
298.15 K, x1 = 0.0992	-2.24
298.15 K, x1 = 0.1503	-3
298.15 K, x1 = 0.2015	-3.45
298.15 K, x1 = 0.2962	-3.91
298.15 K, x1 = 0.2982	-3.92
298.15 K, x1 = 0.3484	-4.01
298.15 K, x1 = 0.3994	-3.96
298.15 K, x1 = 0.4454	-3.77
298.15 K, x1 = 0.4962	-3.49
298.15 K, x1 = 0.505	-3.43
298.15 K, x1 = 0.5922	-2.87
298.15 K, x1 = 0.6969	-2.19
298.15 K, x1 = 0.77	-1.71
298.15 K, x1 = 0.9077	-0.779
313.15 K, x1 = 0.0299	-0.936
313.15 K, x1 = 0.0498	-1.32
313.15 K, x1 = 0.0701	-1.72
313.15 K, x1 = 0.1	-2.34
313.15 K, x1 = 0.1495	-3.05
313.15 K, x1 = 0.2002	-3.62
313.15 K, x1 = 0.2956	-4.12
313.15 K, x1 = 0.3547	-4.23
313.15 K, x1 = 0.4001	-4.15
313.15 K, x1 = 0.4461	-3.98
313.15 K, x1 = 0.4893	-3.78
313.15 K, x1 = 0.6009	-3.15
313.15 K, x1 = 0.6723	-2.67
313.15 K, x1 = 0.7961	-1.71
313.15 K, x1 = 0.9041	-0.888
323.15 K, x1 = 0.0301	-0.617
323.15 K, x1 = 0.0498	-1.03
323.15 K, x1 = 0.0697	-1.59
323.15 K, x1 = 0.0992	-2.04
323.15 K, x1 = 0.1491	-2.92
323.15 K, x1 = 0.1988	-3.41
323.15 K, x1 = 0.3014	-3.81
323.15 K, x1 = 0.3527	-3.94
323.15 K, x1 = 0.3958	-3.92
323.15 K, x1 = 0.4971	-3.6
323.15 K, x1 = 0.5908	-3.03
323.15 K, x1 = 0.7056	-2.24
323.15 K, x1 = 0.7484	-1.94
323.15 K, x1 = 0.8999	-0.82

CN(CCO)CCO [N-methyldiethanolamine] + O
313.15 K
Details	excess molar enthalpy [kJ/mol]
x1 = 0.1004	-1.41
x1 = 0.1501	-1.8
x1 = 0.1986	-2.07
x1 = 0.2593	-2.27
x1 = 0.3681	-2.31
x1 = 0.4312	-2.24
x1 = 0.4941	-2.07
x1 = 0.593	-1.74
x1 = 0.7778	-1.05
x1 = 0.8203	-0.869

OCCNCCO [diethanolamine] + O
298.15 K
Details	excess molar enthalpy [kJ/mol]
x1 = 0.0553	-0.685
x1 = 0.0732	-0.896
x1 = 0.1001	-1.14
x1 = 0.2005	-1.78
x1 = 0.2943	-2.08
x1 = 0.34	-2.13
x1 = 0.4007	-2.08
x1 = 0.4969	-1.92
x1 = 0.5945	-1.61
x1 = 0.6597	-1.39
x1 = 0.7421	-1.09
x1 = 0.8312	-0.721
x1 = 0.9283	-0.302
